Laboratory results taken from PubChem BioAssay AID1845202 (Molecular Pharmacology Branch, DTP, NCI, 2023).

Test system: DMS 114 tumor spheroids, viability % test/control
Assay: Anticancer human tumor DMS 114 cell line growth inhibition;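 note: spheroids exposed to compounds for 7 days before read-out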;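 for viability, T/C: luminescence used as a proxy for viable cells; 100% = DMSO vehicle control viability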
Conditions: spheroids with HUVEC and MSC; for IC50: curve of first compound; for viability, T/C: stronger effect = lower value
Summary of the method: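 Complex spheroids of malignant cells with endothelial cells and mesenchymal stem cells; agents alone or combined, from near clinical Cmax (or 10 microM if unknown) down in half-log steps, 0.25% DMSO final.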

[1] = second compound 30 pM, first compound 0.0316 µM
[2] = second compound 30 pM, first compound 0.1 µM
[3] = second compound 30 pM, first compound 0.316 µM
[4] = second compound 30 pM, first compound 1 µM
[5] = second compound 30 pM, first compound 3.16 µM
[6] = second compound 30 pM, first compound 10 µM
[7] = second compound 94.9 pM, first compound 0.0316 µM
[8] = second compound 94.9 pM, first compound 0.1 µM
[9] = second compound 94.9 pM, first compound 0.316 µM
[10] = second compound 94.9 pM, first compound 1 µM
[11] = second compound 94.9 pM, first compound 3.16 µM
[12] = second compound 94.9 pM, first compound 10 µM
[13] = second compound 0.0003 µM, first compound 0.0316 µM
[14] = second compound 0.0003 µM, first compound 0.1 µM
[15] = second compound 0.0003 µM, first compound 0.316 µM
[16] = second compound 0.0003 µM, first compound 1 µM
[17] = second compound 0.0003 µM, first compound 3.16 µM
[18] = second compound 0.0003 µM, first compound 10 µM
[19] = second compound 0.000949 µM, first compound 0.0316 µM
[20] = second compound 0.000949 µM, first compound 0.1 µM
[21] = second compound 0.000949 µM, first compound 0.316 µM
[22] = second compound 0.000949 µM, first compound 1 µM
[23] = second compound 0.000949 µM, first compound 3.16 µM
[24] = second compound 0.000949 µM, first compound 10 µM
[25] = second compound 0.003 µM, first compound 0.0316 µM
[26] = second compound 0.003 µM, first compound 0.1 µM
[27] = second compound 0.003 µM, first compound 0.316 µM
[28] = second compound 0.003 µM, first compound 1 µM
[29] = second compound 0.003 µM, first compound 3.16 µM
[30] = second compound 0.003 µM, first compound 10 µM

Compound | IC50 (second compound 30 pM) | IC50 (second compound 94.9 pM) | IC50 (second compound 0.0003 µM) | IC50 (second compound 0.000949 µM) | IC50 (second compound 0.003 µM) | viability, T/C [1] | viability, T/C [2] | viability, T/C [3] | viability, T/C [4] | viability, T/C [5] | viability, T/C [6] | viability, T/C [7] | viability, T/C [8] | viability, T/C [9] | viability, T/C [10] | viability, T/C [11] | viability, T/C [12] | viability, T/C [13] | viability, T/C [14] | viability, T/C [15] | further results
CC(C)n1c(=O)n(C)c2cnc3cc(F)c(-c4ccc(OCCCN5CCCCC5)nc4)cc3c21 + COc1cc2c(cc1O)CCNC21CSC2c3c(OC(C)=O)c(C)c4c(c3C(COC1=O)N1C(O)C3Cc5cc(C)c(OC)c(O)c5C(C21)N3C)OCO4 | 4100 nM | 1600 nM | < 31.6 nM | < 31.6 nM | < 31.6 nM | 75.2% | 102% | 91.9% | 84.7% | 59% | 19.2% | 63% | 52.2% | 54.2% | 58.5% | 42.3% | 16.5% | 21.9% | 23.5% | 22.8% | viability, T/C [16]: 20.6%; viability, T/C [17]: 22.3%; viability, T/C [18]: 8.07%; viability, T/C [19]: 2.63%; viability, T/C [20]: 2.62%; viability, T/C [21]: 2.73%; viability, T/C [22]: 5.38%; viability, T/C [23]: 2.74%; viability, T/C [24]: 1.03%; viability, T/C [25]: 0.2%; viability, T/C [26]: 0.22%; viability, T/C [27]: 0.17%; viability, T/C [28]: 0.14%; viability, T/C [29]: 0.12%; viability, T/C [30]: 0.23%
CC1COCCN1c1cc(-c2ccnn2C)c2ccnc(-c3ccn[nH]3)c2n1 (stereo not given) + COc1cc2c(cc1O)CCNC21CSC2c3c(OC(C)=O)c(C)c4c(c3C(COC1=O)N1C(O)C3Cc5cc(C)c(OC)c(O)c5C(C21)N3C)OCO4 | < 31.6 nM | < 31.6 nM | < 31.6 nM | < 31.6 nM | < 31.6 nM | 28.2% | 21.9% | 17.3% | 11.8% | 7.86% | 10.1% | 17.6% | 15.9% | 12.1% | 9.53% | 6.98% | 8.67% | 9.96% | 7.98% | 7.58% | viability, T/C [16]: 5.84%; viability, T/C [17]: 4.87%; viability, T/C [18]: 5.28%; viability, T/C [19]: 1.57%; viability, T/C [20]: 1.39%; viability, T/C [21]: 1.26%; viability, T/C [22]: 0.89%; viability, T/C [23]: 1.12%; viability, T/C [24]: 0.45%; viability, T/C [25]: 0.2%; viability, T/C [26]: 0.22%; viability, T/C [27]: 0.15%; viability, T/C [28]: 0.15%; viability, T/C [29]: 0.12%; viability, T/C [30]: 0.22%
COc1cc(C)[nH]c(=O)c1CN1CCc2c(Cl)cc(C(OC)C3COC3)c(Cl)c2C1=O (stereo not given) + COc1cc2c(cc1O)CCNC21CSC2c3c(OC(C)=O)c(C)c4c(c3C(COC1=O)N1C(O)C3Cc5cc(C)c(OC)c(O)c5C(C21)N3C)OCO4 | > 10000 nM | > 10000 nM | < 31.6 nM | < 31.6 nM | < 31.6 nM | 118% | 90.5% | 83.5% | 82.1% | 74.8% | 69.6% | 89.1% | 85.9% | 86.7% | 66.2% | 65.1% | 56% | 38.9% | 43.3% | 41.4% | viability, T/C [16]: 34.7%; viability, T/C [17]: 28.9%; viability, T/C [18]: 26.6%; viability, T/C [19]: 2.76%; viability, T/C [20]: 4.07%; viability, T/C [21]: 4.68%; viability, T/C [22]: 3.28%; viability, T/C [23]: 2.76%; viability, T/C [24]: 1.64%; viability, T/C [25]: 0.25%; viability, T/C [26]: 0.27%; viability, T/C [27]: 0.26%; viability, T/C [28]: 0.24%; viability, T/C [29]: 0.24%; viability, T/C [30]: 0.29%
COc1ccc([C@@H](O)c2cc(-c3ncnc4cc(N5CCOCC5)ccc34)c(F)cc2Cl)nn1 + COc1cc2c(cc1O)CCNC21CSC2c3c(OC(C)=O)c(C)c4c(c3C(COC1=O)N1C(O)C3Cc5cc(C)c(OC)c(O)c5C(C21)N3C)OCO4 | 4790 nM | 1680 nM | < 31.6 nM | < 31.6 nM | < 31.6 nM | 113% | 99.8% | 102% | 96.7% | 63.7% | 25.1% | 108% | 101% | 92.9% | 65.2% | 31.3% | 13.3% | 39.6% | 37.6% | 35.7% | viability, T/C [16]: 13.4%; viability, T/C [17]: 5.07%; viability, T/C [18]: 2.36%; viability, T/C [19]: 3.78%; viability, T/C [20]: 3.32%; viability, T/C [21]: 1.74%; viability, T/C [22]: 0.47%; viability, T/C [23]: 0.07%; viability, T/C [24]: 0.17%; viability, T/C [25]: 0.25%; viability, T/C [26]: 0.28%; viability, T/C [27]: 0.28%; viability, T/C [28]: 0.31%; viability, T/C [29]: 0.29%; viability, T/C [30]: 0.36%
